Results: ChEMBL document CHEMBL1201862, “PubChem BioAssay data set” (2004)
Active and inactive are the calls of the source.

Assays:
[1] = system: Streptococcus sp. 'group A'; assay: Streptococcus pyogenes SK(-)GAS viability under kanamycin – luminescence, BacTiterGlo, confirmation, counter-screen for streptokinase expression inhibitor project, dose response (AID 1900); format: functional, organism-based
Streptokinase A = target: T1, Streptokinase A (Streptococcus pyogenes serotype M1, UniProt P10520); assay: viability-normalized secreted streptokinase activity reduction – plasminogen activation absorbance, OD405, dose response (AID 1914); format: functional, Streptococcus pyogenes M1 GAS;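 note: secreted streptokinase activity via plasminogen activation per viability signal from cell pellet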
T1 sequence (P10520 whole entry): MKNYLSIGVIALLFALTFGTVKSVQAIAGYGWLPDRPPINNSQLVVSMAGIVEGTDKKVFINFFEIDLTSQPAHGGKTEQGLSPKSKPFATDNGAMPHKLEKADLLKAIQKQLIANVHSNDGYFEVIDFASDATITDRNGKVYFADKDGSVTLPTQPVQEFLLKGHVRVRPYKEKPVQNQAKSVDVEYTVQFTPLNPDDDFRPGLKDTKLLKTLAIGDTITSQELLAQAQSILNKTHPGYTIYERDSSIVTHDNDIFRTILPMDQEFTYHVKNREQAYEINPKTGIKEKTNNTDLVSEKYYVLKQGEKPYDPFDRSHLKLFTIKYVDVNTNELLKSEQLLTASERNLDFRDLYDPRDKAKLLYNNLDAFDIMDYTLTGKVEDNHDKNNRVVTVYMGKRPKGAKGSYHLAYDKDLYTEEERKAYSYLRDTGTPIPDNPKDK

Streptococcus = assay: GAS UMAA2166 growth inhibition – luminescence, BacTiterGlo, counter-screen for streptokinase expression inhibitor project, dose response (AID 1915); format: functional, organism-based;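 note: potency for reduction of bacterial viability or growth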
[2] = target: T2, Replicative DNA helicase DnaB (Mycobacterium tuberculosis, UniProt P9WMR3); assay: DnaB intein splicing inhibitors, dose response, biochemical, cell-free fluorescence (AID 449749); format: functional
T2 sequence (P9WMR3 whole entry): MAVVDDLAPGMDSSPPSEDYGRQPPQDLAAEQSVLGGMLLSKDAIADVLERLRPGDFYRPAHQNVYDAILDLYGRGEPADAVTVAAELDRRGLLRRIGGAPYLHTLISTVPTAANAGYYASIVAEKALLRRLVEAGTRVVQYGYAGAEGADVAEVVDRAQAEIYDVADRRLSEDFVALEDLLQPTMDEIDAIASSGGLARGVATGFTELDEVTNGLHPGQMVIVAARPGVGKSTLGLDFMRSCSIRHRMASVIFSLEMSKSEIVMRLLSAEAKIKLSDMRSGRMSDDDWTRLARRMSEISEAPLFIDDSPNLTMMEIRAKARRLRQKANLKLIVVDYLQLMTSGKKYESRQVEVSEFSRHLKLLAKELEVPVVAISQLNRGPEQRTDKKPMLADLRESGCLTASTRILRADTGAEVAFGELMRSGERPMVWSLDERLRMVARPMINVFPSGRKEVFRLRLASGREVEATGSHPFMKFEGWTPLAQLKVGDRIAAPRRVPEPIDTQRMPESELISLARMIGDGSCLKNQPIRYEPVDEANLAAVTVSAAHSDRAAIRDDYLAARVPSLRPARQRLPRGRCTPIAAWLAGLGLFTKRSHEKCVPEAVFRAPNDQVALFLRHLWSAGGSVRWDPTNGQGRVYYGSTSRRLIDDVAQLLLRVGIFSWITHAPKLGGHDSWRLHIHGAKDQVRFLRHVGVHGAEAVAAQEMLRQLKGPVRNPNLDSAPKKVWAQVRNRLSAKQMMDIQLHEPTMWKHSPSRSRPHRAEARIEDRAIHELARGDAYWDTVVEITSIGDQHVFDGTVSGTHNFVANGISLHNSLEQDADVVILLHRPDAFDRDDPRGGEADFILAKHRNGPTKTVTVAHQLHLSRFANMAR

Protein RecA = target: T3, Protein RecA (Mycobacterium tuberculosis, UniProt P9WHJ3); assay: Fluorescence Cell-Free Homogeneous Dose Retest to Identify Inhibitors of RecA-Intein Splicing Activity. [Related pubchem assays (depositor defined):AID2097, AID2223, AID489010, AID492950]; format: functional
T3 sequence (P9WHJ3 whole entry): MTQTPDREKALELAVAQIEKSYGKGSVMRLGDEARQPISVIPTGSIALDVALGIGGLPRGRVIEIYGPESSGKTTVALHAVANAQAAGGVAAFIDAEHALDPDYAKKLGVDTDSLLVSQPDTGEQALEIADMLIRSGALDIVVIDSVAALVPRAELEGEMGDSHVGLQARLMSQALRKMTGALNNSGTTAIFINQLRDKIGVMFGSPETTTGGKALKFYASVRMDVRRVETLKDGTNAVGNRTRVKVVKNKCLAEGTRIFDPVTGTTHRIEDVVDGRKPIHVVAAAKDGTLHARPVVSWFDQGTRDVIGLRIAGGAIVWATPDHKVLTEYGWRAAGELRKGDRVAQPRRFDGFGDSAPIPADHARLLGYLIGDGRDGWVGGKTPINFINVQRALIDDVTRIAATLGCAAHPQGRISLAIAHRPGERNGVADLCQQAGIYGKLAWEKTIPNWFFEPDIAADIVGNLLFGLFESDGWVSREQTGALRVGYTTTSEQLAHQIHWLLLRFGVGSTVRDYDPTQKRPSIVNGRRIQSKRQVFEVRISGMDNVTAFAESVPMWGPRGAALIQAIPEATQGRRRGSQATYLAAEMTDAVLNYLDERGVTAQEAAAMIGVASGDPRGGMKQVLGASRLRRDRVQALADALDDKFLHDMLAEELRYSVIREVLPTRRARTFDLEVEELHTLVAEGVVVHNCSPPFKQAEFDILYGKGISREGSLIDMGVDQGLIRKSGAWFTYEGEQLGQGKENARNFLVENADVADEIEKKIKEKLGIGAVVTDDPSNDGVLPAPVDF

[3] = target: T4, Long-chain-fatty-acid--AMP ligase FadD28 (Mycobacterium tuberculosis, UniProt P9WQ59); assay: Fluorescence polarization aasay to screen for inhibitors that compete for the binding of FadD28 to a bisubstrate Measured in Biochemical System Using Plate Reader - 2147-01_Inhibitor_Dose_CherryPick_Activity.; format: functional, Mycobacterium tuberculosis H37Rv
T4 sequence (P9WQ59 whole entry): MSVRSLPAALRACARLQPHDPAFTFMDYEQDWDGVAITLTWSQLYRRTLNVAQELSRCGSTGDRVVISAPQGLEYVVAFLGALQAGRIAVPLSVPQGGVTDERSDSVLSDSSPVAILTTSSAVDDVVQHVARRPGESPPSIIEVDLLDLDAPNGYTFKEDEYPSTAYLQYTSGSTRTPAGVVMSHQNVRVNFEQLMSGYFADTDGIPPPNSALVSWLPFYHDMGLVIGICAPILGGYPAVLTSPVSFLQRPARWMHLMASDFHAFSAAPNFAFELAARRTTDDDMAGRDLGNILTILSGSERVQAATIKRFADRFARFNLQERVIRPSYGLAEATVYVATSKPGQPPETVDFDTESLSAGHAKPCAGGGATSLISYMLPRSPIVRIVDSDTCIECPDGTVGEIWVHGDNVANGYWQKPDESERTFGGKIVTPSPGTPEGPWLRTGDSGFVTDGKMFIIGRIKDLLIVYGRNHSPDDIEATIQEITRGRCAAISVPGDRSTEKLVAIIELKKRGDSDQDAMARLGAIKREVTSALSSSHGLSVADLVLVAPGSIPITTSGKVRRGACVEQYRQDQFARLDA

[4] = potency of ADAM10 substrate cleavage blockers – biochemical, QFRET, dose response (AID 743254);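 note: ADAM10 enzyme with the DM2 quenched FRET peptide as substrate; EDANS fluorescence gain as the protease cuts the substrate; inhibitor potency against ADAM10 proteolytic activity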
[5] = target: Disintegrin and metalloproteinase domain-containing protein 17 (Homo sapiens, UniProt P78536); assay: inhibition of ADAM17 substrate cleavage – biochemical, quenched FRET substrate, counter-screen for ADAM10 exosite inhibitor project, dose response (AID 743253)
Paired box protein Pax-8 = Paired box protein Pax-8 (Homo sapiens, UniProt Q06710); assay: PAX8 transcriptional activity inhibition in RMG-I – RMG-I cells, luciferase, cherry-pick, dose response (AID 687027); format: functional, cell-based;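 note: luciferase reporter driven by Pax8 target thyroperoxidase promoter measured by SteadyGlo luminescence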
[6] = A2780 cell killing – plate reader, dry powder samples, cytotoxicity control, dose response (AID 743046); format: functional, cell-based
[7] = OVCAR-3 cell viability loss – plate reader, dry powder samples, PAX8 inhibitor project, dose response (AID 743044); format: functional, cell-based
[8] = IGROV1 cell killing – plate reader, dry powder samples, PAX8 inhibitor project, dose response (AID 743043); format: functional, cell-based; settings: IGROV-1
[9] = OVCAR8 cell viability loss – plate reader, dry powder samples, PAX8 project, dose response (AID 743197); format: functional, cell-based; settings: OVCAR-8
[10] = P. falciparum Dd2 growth inhibitors, dose response, SYBR Green, cherry-picked samples (AID 1159567); format: functional, cell-based
[11] = toxicity to human hepatoma HepG2 cells – cell-based, cherry-picked samples, cytotoxicity control, dose response (AID 1159577); format: functional
[12] = growth inhibition of yeast DHODH-expressing 3D7 parasites – SYBR Green, dry powder samples, dose response (AID 1159570); format: functional, cell-based;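 note: parasite growth measured after 72 hours of compound exposure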
[13] = Dd2 malaria parasite growth inhibition potency – SYBR Green, dry powder samples, dose response (AID 1159566); format: functional, cell-based;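 note: potency for growth inhibition with lower SYBR green DNA signal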
[14] = growth inhibition of PfATP4-mutant resistant parasites – NITD609-resistant line, SYBR Green, dry powder, dose response (AID 1159571); format: functional, cell-based;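 note: parasites synchronized at ring stage by sorbitol before testing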
Caspase-6 = target: T5, Caspase-6 (Homo sapiens, UniProt P55212); assay: inhibition of CASP6 peptide cleavage – biochemical, VEID-R110 fluorescence, cherry-pick, dose response (AID 720632)
T5 sequence (P55212 whole entry): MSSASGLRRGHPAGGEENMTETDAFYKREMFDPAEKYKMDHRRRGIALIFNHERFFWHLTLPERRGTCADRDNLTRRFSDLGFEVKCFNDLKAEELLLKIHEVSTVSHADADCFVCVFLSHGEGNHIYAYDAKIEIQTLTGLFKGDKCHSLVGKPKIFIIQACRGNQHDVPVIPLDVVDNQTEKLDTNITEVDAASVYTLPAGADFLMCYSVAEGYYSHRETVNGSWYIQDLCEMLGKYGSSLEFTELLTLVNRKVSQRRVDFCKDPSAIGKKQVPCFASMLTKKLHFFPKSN

Paired box protein Pax-8, sequence (Q06710 whole entry): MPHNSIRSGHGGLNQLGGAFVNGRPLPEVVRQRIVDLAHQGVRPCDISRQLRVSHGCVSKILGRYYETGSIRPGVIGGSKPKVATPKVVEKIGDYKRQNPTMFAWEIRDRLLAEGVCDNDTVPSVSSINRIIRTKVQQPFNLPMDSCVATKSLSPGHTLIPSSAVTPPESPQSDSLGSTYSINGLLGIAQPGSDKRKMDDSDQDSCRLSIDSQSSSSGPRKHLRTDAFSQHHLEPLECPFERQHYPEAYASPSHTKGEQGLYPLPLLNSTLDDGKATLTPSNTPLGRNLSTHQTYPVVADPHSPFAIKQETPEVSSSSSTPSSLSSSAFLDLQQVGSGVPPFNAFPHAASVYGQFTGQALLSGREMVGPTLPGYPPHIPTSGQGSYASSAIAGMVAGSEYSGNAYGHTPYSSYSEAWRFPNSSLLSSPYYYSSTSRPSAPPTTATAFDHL
Disintegrin and metalloproteinase domain-containing protein 17, sequence (P78536 whole entry, the tested form may be a part): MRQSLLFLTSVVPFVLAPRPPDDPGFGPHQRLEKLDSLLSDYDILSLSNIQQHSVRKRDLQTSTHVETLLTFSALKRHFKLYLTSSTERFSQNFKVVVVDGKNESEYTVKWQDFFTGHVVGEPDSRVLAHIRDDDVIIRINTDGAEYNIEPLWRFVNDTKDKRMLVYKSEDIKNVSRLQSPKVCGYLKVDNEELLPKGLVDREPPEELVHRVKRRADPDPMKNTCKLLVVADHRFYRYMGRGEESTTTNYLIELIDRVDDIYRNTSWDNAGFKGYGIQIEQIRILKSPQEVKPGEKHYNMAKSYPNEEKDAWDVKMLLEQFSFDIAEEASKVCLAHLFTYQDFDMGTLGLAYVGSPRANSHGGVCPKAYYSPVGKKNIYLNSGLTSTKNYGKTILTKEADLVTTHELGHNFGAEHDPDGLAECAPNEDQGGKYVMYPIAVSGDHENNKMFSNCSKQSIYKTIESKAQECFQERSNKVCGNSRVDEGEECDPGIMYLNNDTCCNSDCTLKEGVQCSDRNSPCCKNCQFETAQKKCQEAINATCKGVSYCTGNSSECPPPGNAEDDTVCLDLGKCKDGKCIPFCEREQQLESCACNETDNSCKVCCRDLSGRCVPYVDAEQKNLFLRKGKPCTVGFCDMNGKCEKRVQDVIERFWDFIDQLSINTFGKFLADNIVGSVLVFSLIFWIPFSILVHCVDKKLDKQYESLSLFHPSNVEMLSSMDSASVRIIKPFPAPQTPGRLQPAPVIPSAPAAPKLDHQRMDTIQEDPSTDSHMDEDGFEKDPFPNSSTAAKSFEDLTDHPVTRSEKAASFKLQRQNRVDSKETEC

## CC1=NN(c2nc(-c3ccccc3)cs2)C(=O)C1
[1]
  EC50: 16.9 µM (active)
Streptokinase A
  EC50: 10 µM (active)
Streptococcus
  EC50: > 150 µM (not active)
[2]
  AC50: 7.99 µM (active)
Protein RecA
  EC50: 6.75 µM (active)
[3]
  AC50: > 100 µM (inactive)

## Cc1ccc2c(c1)NC(=O)[C@@]1(C)[C@@H](c3ccccc3)[C@H]3COc4ccccc4[C@@H]3N1C2=O
[4]
  IC50: > 69.5 µM (inactive)
[5]
  IC50: > 69.5 µM (inactive)

## C[C@H]1CN([C@@H](C)CO)C(=O)c2cc(NS(=O)(=O)c3ccccc3)ccc2O[C@@H]1CN(C)Cc1ccc(Oc2ccccc2)cc1
Paired box protein Pax-8
  AC50: 15.7 µM (active)
[6]
  AC50: 8.52 µM (active)

## C[C@@H]1CCCCO[C@H](CN(C)Cc2ccc(C(F)(F)F)cc2)[C@H](C)CN([C@H](C)CO)C(=O)c2cc(NC(=O)Cc3ccccc3)ccc2O1
Paired box protein Pax-8
  AC50: 6.16 µM (active)
[7]
  AC50: 26.8 µM (active)
[8]
  AC50: 43.9 µM (active)
[9]
  AC50: 34.7 µM (active)

## C[C@@H]1CCCCO[C@@H](CN(C)C(=O)NC2CCCCC2)[C@H](C)CN([C@@H](C)CO)C(=O)c2cc(NC(=O)Nc3ccc(C(F)(F)F)cc3)ccc2O1
Paired box protein Pax-8
  AC50: 3.5 µM (active)
[6]
  AC50: 5.99 µM (active)
[7]
  AC50: 38 µM (active)
[9]
  AC50: 47.1 µM (active)

## COc1cccc(S(=O)(=O)Nc2ccc3c(c2)[C@@H]2C[C@H](CC(=O)NCc4cccc(F)c4)O[C@@H](CO)[C@@H]2O3)c1
[10]
  AC50: 6.43 µM (active)
[11]
  AC50: 22.7 µM (active)

## C[C@@H]1CN([C@H](C)CO)C(=O)c2c(c3ccccc3n2C)-c2ccccc2CO[C@H]1CN(C)Cc1ccc(Cl)c(Cl)c1
[10]
  AC50: 3.7 µM (active)
[11]
  AC50: 30 µM (active)

## CC(C)CNC[C@@H]1[C@@H](c2ccccc2)[C@@H](CO)N1Cc1ccc(F)cc1
[12]
  AC50: 3.03 µM (active)
[10]
  AC50: 1.33 µM (active)
[13]
  AC50: 0.409 µM (active)
[14]
  AC50: 0.727 µM (active)

## COc1ccc2c3c(n(C)c2c1)[C@H](CO)N(CC1CCCCC1)CC31CCN(Cc2nccs2)CC1
[12]
  AC50: 1.26 µM (active)
[10]
  AC50: 1.94 µM (active)
[13]
  AC50: 1.62 µM (active)
[14]
  AC50: 1.52 µM (active)

## O=C(C1CCCCC1)N1CC(=O)N2[C@H](C1)[C@@H](c1ccc(C#Cc3cccc(F)c3)cc1)[C@@H]2CO
[10]
  AC50: 4.26 µM (active)
[11]
  AC50: > 39 µM (inactive)

## CC(=O)Nc1cccc2cc(S(=O)(=O)O)ccc12
Caspase-6
  AC50: 15.6 µM (active)
